Tested on: Hypocotyl explants of Brassica napus
Experiment: Agrobacterium mediated transformation of oilseed rape hypocotyl explants with pTHW107, niacinamide for 4 days prior to infection
Assay type: cell-based
Method: Hypocotyl explants of Brassica napus were obtained, cultured and transformed essentially as described by De Block et al, 1989, Plant Physiol. 914:694-701 except for the following modifications: • hypocotyl explants were precultured for 3 days on A2 medium (MS, 0.5 g/l Mes (pH 5.7), 1.2% glucose, 0.5% agarose, 1 mg/l 2,4-D, 0.25 mg/l naphthalene acetic acid (NAA), 1 mg/l 6-benzylaminopurine (BAP)), and then transferred to the A2 medium with or without niacinamide for another 4 days. • infection medium A3 was MS, 0.5 g/l Mes (pH 5.7), 1.2% glucose, 0.1 mg/l NAA, 0.75 mg/l BAP, 0.01 mg/l giberellinic acid (GA3) • selection medium A5 was 0.5 g/l Mes (pH 5.7), 1.2% glucose, 40 mg/l adenine.SO4, 0.5 g/l polyvinyl-polypyrrolidone (PVP), 0.5% agarose, 0.1 mg/l NAA, 0.75 mg/l BAP, 0.01 mg/l GA3, 250 mg/l carbenicillin, 250 mg/l triacillin, 5 mg/l AgNO3. • regeneration medium A6 was MS, 0.5 g/l Mes (pH 5.7), 2% sucrose, 40 mg/l adenine.SO4, 0.5 g/l PVP, 0.5% agarose, 0.0025 mg/l BAP, 250 mg/l triacillin. • healthy shoots were transferred to 1 liter vessels containing rooting medium which was either A8 or A9; A8 consists of 100-130 ml half concentrated MS, 1% sucrose (pH 5.0), 1 mg/l isobutyric acid (IBA), 100 mg/l triacillin added to 300 ml perlite (final pH 6.2); A9 consists of half concentrated MS, 1.5% sucrose (pH 5.8) solidified with agar (0.6%)
Hypocotyl explants (with or without niacinamide treatment) were infected with Agrobacterium tumefaciens strain C58C1Rif carrying T-DNA vector pTHW107 and a helper Ti-plasmid pMP90 (Koncz and Schell, 1986, Mol.Gen.Genet. 204:383-396)(or a derivative thereof).
Plasmid pTHW107 is a vector carrying a T-DNA comprising the following chimeric genes: • PTA29-barnase-3′g7 • PSSU-bar-3′nos • in which PTA29 is the promoter of the TA29 gene of tobacco (EP 344029) and PSSU is the promoter of the gene of Arabidopsis thaliana encoding the small subunit of Rubisco. The complete sequence of the T-DNA of pTHW107 is presented in SEQ ID No 1.
Where required niacinamide (250 mg/l) was added to the media for the last 4 days prior to infection with Agrobacterium. […] Five plants regenerated from the calli obtained by transformation including niacinamide and five plants regenerated from the calli obtained by conventional transformation without niacinamide inclusion, were analyzed by Southern hybridization to determine the copy number of the transgenes, and were further analyzed for reproductive phenotype.

[1] = 250 mg/l niacinamide for the last 4 days prior to infection
[2] = Before 250, regenerated plants Id. No. 1-5

NC(=O)c1cccnc1 [niacinamide]
copy number in plants regenerated from transformed calli [1]: low copy number | variation in the expression profile of the transgenes [1]: less variation | Phenotype of the F1-progeny (vegetative/reproductive) (Before 250, pollinated with untransformed N90-740, phosphinotricin resistant F1-progeny): normal/sterile | Reproductive phenotype (male sterility) [2]: sterile | Vegetative phenotype [2]: normal

From patent publication US20050014268A1, “Genetic transformation using a PARP inhibitor” (Bayer BioScience NV, priority 1995, published 2005)
